# Results published in US7893197B2, “Relaxin-3 chimeric polypeptides and their preparation and use” (Janssen Pharmaceutica N.V., priority 2005, dated 2011).
# Ends that are not written are not given here.
# What was measured:
# [1] = tested on: [125I]-R3/I5 binding sites (GPCR135) in rat brain; test: Quantitative receptor autoradiography, inhibition of [125I]-R3/I5 binding on rat brain sections; conditions: 7 pM [125I]-R3/I5; all regions investigated
# Method: (§1) Rats were asphyxiated by carbon dioxide. Brains were immediately removed from the skull and rapidly frozen in dry-ice. Twenty-micron-thick frontal sections were cut using a Cryostat-microtome (Microm HM505E, Mikron, San Diego, Calif.) and thaw-mounted on adhesive microscope slides (Superfrost^+ Plus, VWR). The sections were kept at −70° C. until use. The sectioning protocol for the regional distribution study included series of coronal sections covering the entire brain.
# Sections were thawed and dried under a cold air stream and then pre-incubated for 15 min. at room temperature in incubation buffer (20 mM HEPES, pH 7.4, 120 mM NaCl2, 0.22 mM KH2PO4, 1.3 mM CaCl2, 0.8 mM MgSO4) by immersing sections in a 400 ml jar. Sections were dried again under a cold air stream and incubated for 60 min. with 7 pM [^125I]-R3/I5 (specific activity, 2200 Ci/mmole) in incubation buffer containing 0.5% BSA and protease inhibitor cocktail. […] Nonspecific binding was determined in the presence of 100 nM of human R3. After incubation, the excess radioligand was washed off by immersing the slides in the jar containing incubation buffer at 4° C. (3 times 10 min.) followed by a quick immersion in water. Sections were dried and exposed to Fujifilm Imaging plates (BAS-MS 2025) for 48 hrs. […]
# LGR7 = molecular target: T1, LGR7 (Homo sapiens, UniProt Q9HBX9); test: Binding of radioligands to COS-7 cells transfected with LGR7; conditions: radioligand 100 pM
# T1 construct: Human LGR7 cDNA containing the complete coding region was PCR amplified; expressed in transfected cells
# T1 sequence (Q9HBX9 1-757): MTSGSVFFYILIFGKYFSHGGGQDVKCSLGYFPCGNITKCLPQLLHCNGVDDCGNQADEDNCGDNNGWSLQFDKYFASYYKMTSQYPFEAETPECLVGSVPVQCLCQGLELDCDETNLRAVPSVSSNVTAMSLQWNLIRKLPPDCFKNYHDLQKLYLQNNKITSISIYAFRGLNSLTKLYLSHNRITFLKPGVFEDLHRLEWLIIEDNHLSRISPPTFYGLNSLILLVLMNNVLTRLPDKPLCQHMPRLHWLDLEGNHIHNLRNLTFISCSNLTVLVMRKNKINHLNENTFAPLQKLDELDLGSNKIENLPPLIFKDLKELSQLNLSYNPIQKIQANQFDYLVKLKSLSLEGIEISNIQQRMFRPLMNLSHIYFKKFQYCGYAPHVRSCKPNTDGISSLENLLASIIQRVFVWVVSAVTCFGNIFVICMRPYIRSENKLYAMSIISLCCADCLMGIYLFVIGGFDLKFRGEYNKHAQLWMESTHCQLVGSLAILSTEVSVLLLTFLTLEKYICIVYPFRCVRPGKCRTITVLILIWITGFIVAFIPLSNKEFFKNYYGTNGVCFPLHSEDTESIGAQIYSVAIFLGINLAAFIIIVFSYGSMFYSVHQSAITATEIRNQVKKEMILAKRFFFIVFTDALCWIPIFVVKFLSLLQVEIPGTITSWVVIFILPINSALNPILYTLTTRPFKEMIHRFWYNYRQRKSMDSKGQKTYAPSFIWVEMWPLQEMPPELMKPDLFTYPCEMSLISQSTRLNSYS
# Method: (§2) FIGS. 5A-5D illustrate a comparative analysis of the binding specificities of [^125I]-relaxin-3 and [^125I]-R3/I5 for GPCR135 and LGR7. COS-7 cells in 6-well culture dishes were transfected with human GPCR135 and LGR7, respectively. Mock transfected COS-7 cells were used as the negative controls. [^125I]-relaxin-3 (FIG. 5A) or [^125I]-R3/I5 (FIG. 5B) was added to cells at a final concentration of 100 pM either in the absence or presence of 1 uM of unlabeled relaxin-3 to determine total binding and non-specific binding, respectively. FIG. 5C depicts an autoradiogram of [^125]-relaxin-3 binding in rat brain sagittal section. FIG. 5D depicts an autoradiogram of non-specific binding of [^125]-relaxin-3 as determined in the presence of 100 nM of unlabeled relaxin-3. FIG. 5E depicts an autoradiogram of [^125]-R3/I5 binding in rat brain sagittal section. […] binding of [^125]-R3/I5 as determined in the presence of 100 nM of unlabeled relaxin-3.
# GPCR135 = molecular target: T2, GPCR135 (Homo sapiens, UniProt Q9NSD7); test: Binding of radioligands to COS-7 cells transfected with GPCR135
# T2 construct: expressed in transfected cells
# T2 sequence (Q9NSD7 1-469): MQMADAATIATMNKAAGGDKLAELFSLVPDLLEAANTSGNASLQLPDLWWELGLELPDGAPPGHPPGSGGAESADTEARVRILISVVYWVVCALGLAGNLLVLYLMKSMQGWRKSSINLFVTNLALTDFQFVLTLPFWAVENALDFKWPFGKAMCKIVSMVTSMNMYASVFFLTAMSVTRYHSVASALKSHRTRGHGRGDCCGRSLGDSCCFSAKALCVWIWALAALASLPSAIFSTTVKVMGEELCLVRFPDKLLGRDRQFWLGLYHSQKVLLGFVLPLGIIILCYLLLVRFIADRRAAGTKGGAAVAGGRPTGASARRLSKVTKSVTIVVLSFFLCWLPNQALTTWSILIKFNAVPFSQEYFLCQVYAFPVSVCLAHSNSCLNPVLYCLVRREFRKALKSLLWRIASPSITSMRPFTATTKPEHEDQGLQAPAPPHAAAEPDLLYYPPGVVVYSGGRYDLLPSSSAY
# Method: as §2
# [2] = tested on: GPCR135 binding sites in rat brain; test: Receptor autoradiography, distribution of [125I]R3/I5 binding sites in rat brain; parameters: key: −: not detected; +: low density; ++: moderate density; +++: high density; conditions: 7 pM, n = 3
# Sequence of GPCR135 binding sites in rat brain (as listed by the source): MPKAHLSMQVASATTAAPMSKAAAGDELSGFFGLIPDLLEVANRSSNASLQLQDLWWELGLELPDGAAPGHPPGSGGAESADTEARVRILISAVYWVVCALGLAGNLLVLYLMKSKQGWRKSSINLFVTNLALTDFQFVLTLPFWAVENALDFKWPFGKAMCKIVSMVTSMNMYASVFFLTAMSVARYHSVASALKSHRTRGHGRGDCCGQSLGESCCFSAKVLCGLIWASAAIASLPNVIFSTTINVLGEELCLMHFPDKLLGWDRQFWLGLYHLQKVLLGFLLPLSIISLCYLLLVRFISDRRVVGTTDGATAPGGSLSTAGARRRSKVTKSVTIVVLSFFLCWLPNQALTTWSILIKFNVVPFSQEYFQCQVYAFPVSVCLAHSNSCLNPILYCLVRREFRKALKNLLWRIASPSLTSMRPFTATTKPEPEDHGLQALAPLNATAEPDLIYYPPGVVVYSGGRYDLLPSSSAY
# Method: as §1
# Sections were thawed and dried under a cold air stream and then pre-incubated for 15 min. at room temperature in incubation buffer (20 mM HEPES, pH 7.4, 120 mM NaCl2, 0.22 mM KH2PO4, 1.3 mM CaCl2, 0.8 mM MgSO4) by immersing sections in a 400 ml jar. Sections were dried again under a cold air stream and incubated for 60 min. with 7 pM [^125I]-R3/I5 (specific activity, 2200 Ci/mmole) in incubation buffer containing 0.5% BSA and protease inhibitor cocktail. […] Nonspecific binding was determined in the presence of 100 nM of human R3. After incubation, the excess radioligand was washed off by immersing the slides in the jar containing incubation buffer at 4° C. (3 times 10 min.) followed by a quick immersion in water. Sections were dried and exposed to Fujifilm Imaging plates (BAS-MS 2025) for 48 hrs. The imaging plates were scanned using the Fuji Bio-Imaging Analyzer System (BAS-5000, Fuji Medical System, CT) and visualized using ImageGauge V3.12 software (Fuji Medical System, CT).
# Cresyl-violet staining was performed on adjacent sections and the regions were identified using the rat brain atlas of Paxinos and Watson (Paxinos et al., 1998, The Rat Brain in Stereotaxic Coordinates, New York, Academic Press (publisher)). For illustration purposes, sections were exposed to autoradiography film ((Kodak Omat AR, Rochester N.Y.). After a 4-week exposure, they were automatically developed and fixed in a Konica SRY-101A machine (Konica Medical Corp., Wayne N.J.). Adobe Photoshop 7.0 and Illustrator 9.0 were used for preparation of the figures.
# Sequence of [125I]-R3/I5 binding sites (GPCR135) in rat brain (as listed by the source): as above
substance,measurement,setting,value
Relaxin: human relaxin (R1) used as competitor in Example 6 (KWKDDVIKLCGRELVRAQIAICGMSTWSRPYVALFEKCCLIGCTKRSLAKYC),"displacement of [125I]-R3/I5 binding sites, in words",[1],did not displace any significant amount of [^125I]-R3/I5 binding sites at concentrations of up to 100 nM
"[^125I]-R3/I5: radioiodinated R3/I5 chimera used as tracer (RAAPYGVRLCGREFIRAVIFTCGGSRWQDLQTLCCTDGCSMTDLSALC; ends and bridges not checked; also: radioiodinated (125I), site not given here)","binding to LGR7, in words",LGR7,did not demonstrate significant binding to LGR7
same,"non-specific binding, in words",GPCR135; in presence of 1 uM unlabeled relaxin-3,lower non-specific binding than [^125I]-relaxin-3
same,"binding to GPCR135 expressing cells, in words",GPCR135; radioligand 100 pM,high affinity
same,"[125I]R3/I5 binding sites, density",[2]; Amygdaloid body: Amygdalohippocampal area,+++
same,"[125I]R3/I5 binding sites, density",[2]; Amygdaloid body: Bed nucleus stria terminalis,++
same,"[125I]R3/I5 binding sites, density",[2]; Amygdaloid body: Central nucleus,++
same,"[125I]R3/I5 binding sites, density",[2]; Amygdaloid body: Lateral nucleus,++
same,"[125I]R3/I5 binding sites, density",[2]; Amygdaloid body: Medial nucleus,++
same,"[125I]R3/I5 binding sites, density","[2]; Brain stem: Dorsal raphe, dorsal part",+
same,"[125I]R3/I5 binding sites, density",[2]; Brain stem: Inferior colliculus,++
same,"[125I]R3/I5 binding sites, density",[2]; Brain stem: Interpeduncular nucleus,+++
same,"[125I]R3/I5 binding sites, density",[2]; Brain stem: Nucleus incertus,++
same,"[125I]R3/I5 binding sites, density",[2]; Brain stem: Periaqueductal gray area,++
same,"[125I]R3/I5 binding sites, density",[2]; Brain stem: Spinal trigeminal tract,++
same,"[125I]R3/I5 binding sites, density",[2]; Brain stem: Superior colliculus,+++
same,"[125I]R3/I5 binding sites, density",[2]; Cortex: Motor,++
same,"[125I]R3/I5 binding sites, density",[2]; Cortex: Piriform,++
same,"[125I]R3/I5 binding sites, density",[2]; Cortex: Somatosensory,++
same,"[125I]R3/I5 binding sites, density",[2]; Cortex: Temporal,++
same,"[125I]R3/I5 binding sites, density",[2]; Cortex: Visual,++
same,"[125I]R3/I5 binding sites, density",[2]; Habenula: Medial,++
same,"[125I]R3/I5 binding sites, density",[2]; Hippocampal formation: CAB field,+
same,"[125I]R3/I5 binding sites, density",[2]; Hippocampal formation: Dentate gyrus,+
same,"[125I]R3/I5 binding sites, density",[2]; Hypothalamus: Lateral nucleus,−
same,"[125I]R3/I5 binding sites, density",[2]; Hypothalamus: Paraventricular nucleus,++
same,"[125I]R3/I5 binding sites, density",[2]; Hypothalamus: Supraoptic nucleus,++
same,"[125I]R3/I5 binding sites, density",[2]; Olfactory System: Anterior olfactory nucleus,+++
same,"[125I]R3/I5 binding sites, density",[2]; Olfactory System: Olfactory bulb,+++
same,"[125I]R3/I5 binding sites, density",[2]; Septal region: Lateral,+
same,"[125I]R3/I5 binding sites, density",[2]; Thalamus: Centro lateral,++
same,"[125I]R3/I5 binding sites, density",[2]; Thalamus: Centro medial,++
same,"[125I]R3/I5 binding sites, density",[2]; Thalamus: Paraventricular,++
